Assay results taken from ChEMBL document CHEMBL1157527 (2008).

Tested on: Candida albicans
Assay: Antifungal activity against Candida albicans; note: unit not given here
Format: functional

Row | SMILES | p(1/MIC)
1 | CCc1ccc(-c2nc3cc(NC(=O)OCc4ccccc4)ccc3o2)cc1 | 1.477
2 | Cc1c(C(C)n2ccnc2)c2ccccc2n1Cc1ccc(F)cc1 (stereo unspecified) | 1.819
3 | CN(C)c1ccc(-c2nc3cc(NC(=O)CCc4ccccc4)ccc3o2)cc1 | 1.82
4 | C[N+](C)(C)[B-](Br)(Br)C#N | 3.295
5 | O=C(Nc1ccc2oc(-c3ccccc3)nc2c1)OCc1ccc(Cl)cc1 | 1.544
6 | Cc1c(Cn2ccnc2)c2cc(Br)ccc2n1Cc1ccc(F)cc1 | 2.415
7 | CCc1ccc(-c2nc3cc(NC(=O)OCc4ccc(Cl)cc4)ccc3o2)cc1 | 1.792
8 | CC[N+](C)(C)[BH2-]C#N [(CYANOBORANYLIDENE)(ETHYL)DIMETHYLAMINE] | 3.649
9 | CCCCCCCCCCC[N+](C)(C)[BH2-]C#N | 1.512
10 | C[N+](C)([BH2-]C#N)CC1(O)C=CCC1 (stereo unspecified) | 3.142
11 | CCCCCCC(C)(O)C[N+](C)(C)[BH2-]C#N (stereo unspecified) | 3.344
12 | CC(C)(C)C(c1cn(Cc2ccc(Cl)cc2)c2ccccc12)n1ccnc1 (stereo unspecified) | 1.208
13 | C[N+](C)([BH2-]C#N)CCCCCCCCCCCC[N+](C)(C)[BH2-]C#N | 1.982
14 | C[N+](C)([BH2-]C#N)CCCCCCCCCCCCCC[N+](C)(C)[BH2-]C#N | 1.634
15 | CCCCCCCCC[N+](C)(C)[BH2-]C#N [(CYANOBORANYLIDENE)DIMETHYLNONYLAMINE] | 2.176
16 | CN(C)c1ccc(-c2nc3cc(NC(=O)OCc4ccc(Cl)cc4)ccc3o2)cc1 | 1.875
17 | C[N+](C)(C)[BH2-]C#N [(CYANOBORANYLIDENE)TRIMETHYLAMINE] | 3.708
18 | C[N+](C)([BH2-]C#N)C[Si](C)(C)C [(CYANOBORANYLIDENE)DIMETHYL[(TRIMETHYLSILYL)METHYL]AMINE] | 3.468
19 | Cc1c(Cn2ccnc2)c2cc(Br)ccc2n1Cc1ccc(Cl)cc1 | 1.902
20 | Clc1ccc(Cn2cc(Cn3ccnc3)c3ccccc32)cc1 | 1.924
21 | Cc1c(Cn2ccnc2)c2ccccc2n1Cc1ccc(Cl)cc1 | 0.474
22 | Fc1ccc(Cn2cc(Cn3ccnc3)c3ccccc32)cc1 | 1.117
23 | Cc1c(Cn2ccnc2)c2cc(Br)ccc2n1Cc1ccccc1F | 2.415
24 | CCCCCCCCCCCCCCC[N+](C)(C)[BH2-]C#N | 1.724
25 | C[N+](C)(CCCCCCCCCC[N+](C)(C)[B-](Br)(Br)C#N)[B-](Br)(Br)C#N | 2.017
26 | Fc1ccc(Cn2cc(Cn3ccnc3)c3ccccc32)c(F)c1 | 1.695
27 | Cc1c(Cn2ccnc2)c2ccccc2n1Cc1ccc(F)cc1 | 2.496

Row | SMILES | p(1/MIC)
28 | Cc1c(Cn2ccnc2)c2ccccc2n1Cc1cc(Cl)ccc1Cl | 1.432
29 | O=C(Cc1ccc([N+](=O)[O-])cc1)Nc1ccc2oc(-c3ccc(F)cc3)nc2c1 | 1.532
30 | CCCCCCCCCCCC[N+](C)(C)[BH2-]C#N [(CYANOBORANYLIDENE)(DODECYL)DIMETHYLAMINE] | 1.785
31 | O=C(CCc1ccccc1)Nc1ccc2oc(-c3ccc(F)cc3)nc2c1 | 2.127
32 | CCCCCCCCCC(O)C[N+](C)(C)[BH2-]C#N (stereo unspecified) | 2.692
33 | C[N+](C)([BH2-]C#N)CC(O)c1ccccc1 (stereo unspecified) | 2.389
34 | O=C(Nc1ccc2oc(-c3ccc(F)cc3)nc2c1)SCc1ccccc1 | 1.813
35 | C=CCCCC[N+](C)(C)[BH2-]C#N | 1.973
36 | CCCC[N+](C)(C)[BH2-]C#N [BUTYL(CYANOBORANYLIDENE)DIMETHYLAMINE] | 3.553
37 | C[N+](C)(CCCCCCCCCC[N+](C)(C)[BH-](Br)C#N)[BH-](Br)C#N (stereo unspecified) | 2.146
38 | CCc1ccc(-c2nc3cc(NC(=O)CCc4ccccc4)ccc3o2)cc1 | 1.813
39 | Cc1c(Cn2ccnc2)c2cc(Br)ccc2n1Cc1ccccc1Cl | 2.397
40 | C[N+](C)([BH2-]C#N)CCCCCCCCCC[N+](C)(C)[BH2-]C#N | 2.611
41 | Clc1ccc(Cn2cc(Cn3ccnc3)c3ccccc32)c(Cl)c1 | 1.147
42 | CCCCCCCCCCCCC[N+](C)(C)[BH2-]C#N | 1.763
43 | O=C(Nc1ccc2oc(-c3ccccc3)nc2c1)SCc1ccccc1 | 1.839
44 | CCc1ccc(-c2nc3cc(NC(=O)SCc4ccccc4)ccc3o2)cc1 | 2.161
45 | CC(C)C(c1cn(Cc2ccc(Cl)cc2)c2ccccc12)n1ccnc1 (stereo unspecified) | 1.138
46 | O=C(Cc1ccccc1)Nc1ccc2oc(-c3ccc(F)cc3)nc2c1 | 1.82
47 | O=C(Nc1ccc2oc(-c3ccc(F)cc3)nc2c1)OCc1ccc(Cl)cc1 | 1.806
48 | O=C(Nc1ccc2oc(-c3ccc(F)cc3)nc2c1)OCc1ccccc1 | 1.785
49 | O=C(Nc1ccc2oc(-c3ccccc3)nc2c1)OCc1ccccc1 | 1.505
50 | Cc1c(C(C)n2ccnc2)c2ccccc2n1Cc1ccc(Br)cc1 (stereo unspecified) | 2.404
51 | C=CCC[N+](C)(C)[BH2-]C#N | 2.672
52 | CN(C)c1ccc(-c2nc3cc(NC(=O)OCc4ccccc4)ccc3o2)cc1 | 2.143
53 | CCCCC[N+](C)(C)[BH2-]C#N [(CYANOBORANYLIDENE)DIMETHYLPENTYLAMINE] | 2.909
54 | O=C(Nc1ccc2oc(-c3ccc(F)cc3)nc2c1)c1ccccc1 | 2.1

Further lines, results first:

Row | p(1/MIC) | SMILES
55 | 3.445 | C=CCCCCCCCCCOP(=O)(O)OC(Cn1cncn1)(Cn1cncn1)c1ccc(F)cc1F
56 | 2.846 | CCC(Br)C(=O)OC(Cn1cncn1)(Cn1cncn1)c1ccc(F)cc1F (stereo unspecified)
57 | 1.806 | CCCCCCCCCCC[N+](C)(C)[BH-](F)C#N (stereo unspecified)
58 | 3.172 | CC(Br)C(=O)OC(Cn1cncn1)(Cn1cncn1)c1ccc(F)cc1F (stereo unspecified)
59 | 3.208 | CCCCCCCCCCCCCCOP(=O)(O)OC(Cn1cncn1)(Cn1cncn1)c1ccc(F)cc1F
60 | 3.377 | O=P(O)(OCCCCCCCCCCCBr)OC(Cn1cncn1)(Cn1cncn1)c1ccc(F)cc1F
61 | 1.342 | O=C(OC(Cn1cncn1)(Cn1cncn1)c1ccc(F)cc1F)C(Br)CCCCCCCCCCBr (stereo unspecified)
62 | 2.616 | C=CCCCCCCCCCOP(=O)(OC)OC(Cn1cncn1)(Cn1cncn1)c1ccc(F)cc1F (stereo unspecified)
63 | 3.138 | CCCCCCCCCCCOP(=O)(OC)OC(Cn1cncn1)(Cn1cncn1)c1ccc(F)cc1F (stereo unspecified)
64 | 3.392 | N#CCCOP(=O)(OCCCCCCCCCCCBr)OC(Cn1cncn1)(Cn1cncn1)c1ccc(F)cc1F (stereo unspecified)
65 | 2.494 | CCCCCCCCCCCOP(=O)(OCCC#N)OC(Cn1cncn1)(Cn1cncn1)c1ccc(F)cc1F (stereo unspecified)
66 | 3.143 | CCCCCCCCCCCCCC(=O)OC(Cn1cncn1)(Cn1cncn1)c1ccc(F)cc1F
67 | 2.314 | C=CCCCCCCCCCOP(=O)(OCCC#N)OC(Cn1cncn1)(Cn1cncn1)c1ccc(F)cc1F (stereo unspecified)
68 | 3.412 | CCCCCCCCCCC(Br)C(=O)OC(Cn1cncn1)(Cn1cncn1)c1ccc(F)cc1F (stereo unspecified)
69 | 1.431 | CCCCCCC(Br)C(=O)OC(Cn1cncn1)(Cn1cncn1)c1ccc(F)cc1F (stereo unspecified)
70 | 3.413 | CC(=O)Oc1ccccc1C(=O)OC(Cn1cncn1)(Cn1cncn1)c1ccc(F)cc1F
71 | 1.591 | CCCCCCCCCCC[N+](C)(C)[B-](Br)(Br)C#N
72 | 3.17 | CCCCCCCCCCCCCCOP(=O)(OCCC#N)OC(Cn1cncn1)(Cn1cncn1)c1ccc(F)cc1F (stereo unspecified)
73 | 2.962 | CCCCCCCCOP(=O)(OC)OC(Cn1cncn1)(Cn1cncn1)c1ccc(F)cc1F (stereo unspecified)
74 | 2.274 | C[N+](C)([BH2-]C(=O)O)CCCCCCCCCC[N+](C)(C)[BH2-]C(=O)O
75 | 3.374 | O=C(OCCCl)OC(Cn1cncn1)(Cn1cncn1)c1ccc(F)cc1F
76 | 3.61 | CC(=O)OC(Cn1cncn1)(Cn1cncn1)c1ccc(F)cc1F
77 | 3.091 | CCCCCCCCOP(=O)(OCCC#N)OC(Cn1cncn1)(Cn1cncn1)c1ccc(F)cc1F (stereo unspecified)
78 | 2.1 | CCCCC(Br)C(=O)OC(Cn1cncn1)(Cn1cncn1)c1ccc(F)cc1F (stereo unspecified)
79 | 3.148 | CCCCCCCCCCCOP(=O)(O)OC(Cn1cncn1)(Cn1cncn1)c1ccc(F)cc1F
80 | 1.69 | CCCCCCCCCCC[N+](C)(C)[BH-](Br)C#N (stereo unspecified)
81 | 2.768 | CCCC(Br)C(=O)OC(Cn1cncn1)(Cn1cncn1)c1ccc(F)cc1F (stereo unspecified)
